Source: US20060128605A1, “Preventives/remedies for snore or respiratory disturbances during sleep” (AJINOMOTO CO. INC, priority 2003, published 2006)

Tests used:
[1] = test system: male adults having sleep apnea syndrome; settings: glycine 3 g 1 hour before sleep
Method: For confirmation of the effect of glycine on respiratory disorders during sleep, a double blind crossover test was performed with 10 male adults having sleep apnea syndrome as evidenced by more than 5 of the following AHI (apnea hypopnea index per 1 hour). Glycine (3 g) was administered 1 hour before sleep and, as the placebo, maltose adjusted to an indistinguishable taste was used.
Sleep polygraph data such as electroencephalogram, electromyogram, arterial blood oxygen saturation, and the like during sleep were measured using the Alice system manufactured by Respironics Co., Ltd. (USA). The air flow of the mouth-nose part was measured, and hypopnea was defined to mean a state where a decrease to not more than 50% requires not less than 10 second to recover to not less than 60%. Furthermore, a decrease in the arterial blood oxygen saturation by not less than 3% associated with hypopnea was taken as apnea. The total of the incidents of apnea and hypopnea per 1 hour was taken as an apnea hypopnea index (AHI) and used as a severity index of respiratory disorder during sleep.

[2] = test system: snoring of the test recipient during sleep; experiment: snoring evaluation by a family member after tablets taken before bedtime; format: in vivo, human; settings: Experiment 1
Method: (§1) In addition, sleep apnea and arterial blood oxygen saturation (SpO2) were evaluated using a sleep tester LT-200 manufactured by FUKUDA DENSHI Co., Ltd. (Japan). […] The test recipient was completely free of regular medication, and had no habit of taking nutritional supplements or nutritional supports. […] The test recipient took an appropriate number (2-4) of the glycine tablets or the control tablets, and interviewed a family member the next morning as to the presence or absence of snoring and the level thereof, without informing the family member of the kind of the tablets and whether they took the tablets.
The presence or absence of snoring during sleep was evaluated the next morning by a family member into three levels of minus (−; snoring was not heard or like sleep breath), plus (+; medium level snoring), two plus (++; extremely noisy and severe snoring). The presence or absence of snoring when the glycine tablets and control tablets were taken before bedtime, and nothing was taken before bedtime was counted.

[3] = test system: sleep apnea and SpO2 decrease during sleep; settings: Experiment 3, glycine tablets (4 tablets) before bedtime
Method: as §1
The arterial blood oxygen saturation (SpO2) and air flow in the mouth-nose during sleep were measured using a sleep tester LT-200 manufactured by FUKUDA DENSHI Co., Ltd. The arterial blood oxygen saturation (SpO2) was measured using a sensor attached to the tip of the second finger of the left hand, and a decrease in the arterial blood oxygen saturation (SpO2) to not more than 93% which lasted for not less than 10 seconds was taken as SpO2 decrease. The number of SpO2 decrease per one day and per one hour and the minimum SpO2 of one day were determined. The air flow in the mouth-nose part was measured by a thermocapsule method, and a decrease in the flow in the mouth-nose part to not more than 50% which lasted for not less than 10 sec was defined as hypopnea. The occurrence of SpO2 decrease along with hypopnea was counted as apnea and the number of apnea per one day and per one hour was determined. Simultaneously, tracheal sounds during sleep were picked up through a mike set near laryngeal prominence.
The sleep apnea suppressing effect of glycine was evaluated. […] Tracheal sounds during sleep, which is considered to reflect the snoring sound, were simultaneously recorded.

[4] = test system: sleep apnea syndrome; settings: animal experiments using rats; cited from earlier work
[5] = 2 glycine tablets (glycine 490 mg) before bedtime, 9 days of observation
[6] = 4 glycine tablets (glycine 980 mg) before bedtime, 8 days of observation
[7] = SpO2 not more than 93% for not less than 10 seconds

In the case of `NCC(=O)O` [glycine], the “average value of AHI, test recipients of 40 years old or over with BMI exceeding 28” value ([1]; 4 cases, placebo 18.9 (p=0.046)) is reported as 10.6, the “average value of AHI, test recipients of 40 years old or over” value ([1]; 6 cases, entire sleep stage, placebo 17.2 (p=0.062)) is reported as 11.5 and the “respiratory disorder (hypopnea or apnea, AHI) in the early stage of sleep” value ([1]; early stage of sleep (3 hours), FIG. 4 right graph) is reported as “improved”. The “average value of AHI, nonrem sleep stage (NREM)” value ([1]; entire sleep stage, 10 male adults, placebo 11.3) was 10.8, the “average value of AHI, entire period (Total) of rem and nonrem sleep stage” value ([1]; entire sleep stage, 10 male adults, placebo 15.0) was 13.4 and the “average value of AHI, rem sleep stage (REM)” value ([1]; entire sleep stage, 10 male adults, placebo 33.5) was 26.8. The “snoring evaluation results ++, number of days (severe snoring)” value [2, 5] was 2 days, the “snoring evaluation results ++, percentage of total observation days” value [2, 5] was “(22%)” and the “snoring evaluation results +, number of days (medium level snoring)” value [2, 5] was 3 days. The “snoring evaluation results +, percentage of total observation days” value [2, 5] was “(33%)”, the “snoring evaluation results −, number of days (snoring not heard or like sleep breath)” value [2, 5] was 4 days and the “snoring evaluation results −, percentage of total observation days” value [2, 5] was “(44%)”. The “snoring evaluation results ++, number of days (severe snoring)” value [2, 6] was 0 days, the “snoring evaluation results ++, percentage of total observation days” value [2, 6] was “(0% a))” and the “snoring evaluation results +, number of days (medium level snoring)” value [2, 6] was 2 days. For the same molecule, the “snoring evaluation results +, percentage of total observation days” value [2, 6] was “(25%)”, the “snoring evaluation results −, number of days (snoring not heard or like sleep breath)” value [2, 6] was 6 days and the “snoring evaluation results −, percentage of total observation days” value [2, 6] was “(75%)”. The “SpO2 lowest value during sleep” value [3] was 88 ± 1%, the “apnea (times/day)” value [3] was 11 ± 4 times/day and the “apnea (times/hr)” value [3] was 1.9 ± 0.9 times/hr. For the same molecule, the “SpO2 decrease (times/day)” value [3, 7] was 14 ± 5 times/day and the “SpO2 decrease (times/hr)” value [3, 7] was 2.5 ± 1.2 times/hr.
For `Nc1nc2ccc(OC(F)(F)F)cc2s1` [riluzole], the “effectiveness for the treatment of sleep apnea syndrome” value [4] is given as “has been confirmed”.
